The target of one assay is T1, HSP90a protein (Homo sapiens, UniProt P07900).
T1 construct: purchased BPS Bioscience 50298
The assay is described as follows: HSP90α-binding fluorescent polarization (FP) assay, BODIPY-labeled RNK04010 probe. The note with it: FP competition with RNK04010 (BODIPY-labeled), 5 nM, 300 min at 25° C. In short, it runs like this:
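Polarization signal was read after equilibration at 25° C, for 120 min with FITC-geldanamycin or 300 min with the BODIPY-tagged RNK04010 probe, each at 5 nM final. Compounds spanned 20 μM down to 5.2 nM in 2.5-fold dilutions against the HSP90a N-terminal domain.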

The subject of assay [1] is NCI-H358 human non-small cell lung cancer. The assay can be described thus: NCI-H358 CCK-8 proliferation assay. The assay is classed as cell-based. The note with it: NCI-H358 cells, 72 hr. A digest of the protocol: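 Compounds were tested as a 3-fold series from 20 μM down to 1.02 nM in CCK-8 absorbance assays. The lines used were NCI-H23 and NCI-H358, each with 1 KRAS(G12C) copy, and MIA PaCa-2 with 2 copies. Inhibition was derived relative to DMSO controls, with a no-cell blank subtracted.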

`C=CC(=O)N1CCN(c2nc(NCCC(=O)N3CCN(Cc4ccc5c(c4)CN(C(=O)c4cc(CCC)c(O)cc4O)C5)CC3)nc3c2CCN(c2cc(O)cc4ccccc24)C3)CC1` [Compound 94, 1-(4-(2-((3-(4-((2-(2,4-dihydroxy-5-propylbenzoyl)isoindolin-5-yl)methyl)piperazin-1-yl)-3-oxopropyl)amino)-7-(3-hydroxynaphthalen-1-yl)-5,6,7,8-tetrahydropyrido[3,4-d]pyrimidin-4-yl)piperazin-1-yl)prop-2-en-1-one, trifluoroacetic acid]: the IC50 (commonly the concentration that gives 50% inhibition) on HSP90a protein was > 1000 nM. Besides, in assay [1], the EC50 (usually the concentration needed to bring the measured effect to its halfway point) was > 1000 nM.

The compound `C=CC(=O)N1CCN(c2nc(NCCC(=O)NCc3ccc(-n4c(O)nnc4-c4cc(C(C)C)c(O)cc4O)cc3F)nc3c2CCN(c2cccc4ccccc24)C3)C[C@H]1CC#N` [Compound 96, (R)-3-((4-(4-acryloyl-3-(cyanomethyl)piperazin-1-yl)-7-(naphthalen-1-yl)-5,6,7,8-tetrahydropyrido[3,4-d]pyrimidin-2-yl)amino)-N-(4-(3-(2,4-dihydroxy-5-isopropylphenyl)-5-hydroxy-4H-1,2,4-triazol-4-yl)-2-fluorobenzyl)propanamide, trifluoroacetic acid] had an IC50 on HSP90a protein of 100 to 1000 nM. In addition, the concentration giving a half-maximal response (EC50) in assay [1] was > 1000 nM.

Compound `C=CC(=O)N1CCN(c2nc(NCCC(=O)NCc3ccc(-n4c(O)nnc4-c4cc(C(C)C)c(O)cc4O)cc3F)nc3c2CCN(c2cccc4cccc(Cl)c24)C3)C[C@H]1CC#N` [Compound 97, (R)-3-((4-(4-acryloyl-3-(cyanomethyl)piperazin-1-yl)-7-(8-chloronaphthalen-1-yl)-5,6,7,8-tetrahydropyrido[3,4-d]pyrimidin-2-yl)amino)-N-(4-(3-(2,4-dihydroxy-5-isopropylphenyl)-5-hydroxy-4H-1,2,4-triazol-4-yl)-2-fluorobenzyl)propanamide, trifluoroacetic acid] returned an IC50 at HSP90a protein of 100 to 1000 nM. Also, the EC50 in assay [1] was > 1000 nM.

`C=CC(=O)N1CCN(c2nc(NCCC(=O)N3CCN(Cc4ccc(-n5c(O)nnc5-c5cc(C(C)C)c(O)cc5O)cc4)CC3)nc3c2CCN(c2cccc4cccc(Cl)c24)C3)C[C@H]1CC#N` [Compound 100, (R)-2-(1-acryloyl-4-(7-(8-chloronaphthalen-1-yl)-2-((3-(4-(4-(3-(2,4-dihydroxy-5-isopropylphenyl)-5-hydroxy-4H-1,2,4-triazol-4-yl)benzyl)piperazin-1-yl)-3-oxopropyl)amino)-5,6,7,8-tetrahydropyrido[3,4-d]pyrimidin-4-yl)piperazin-2-yl)acetonitrile, trifluoroacetic acid] registered a half-maximal inhibitory concentration (IC50) on HSP90a protein of 100 to 1000 nM. In addition, the EC50 in assay [1] was > 1000 nM.

On to `C=CC(=O)N1CCN(c2nc(NCCC(=O)NCC3CCN(C(=O)C4CCN(Cc5ccc(-n6c(O)nnc6-c6cc(C(C)C)c(O)cc6O)cc5)CC4)CC3)nc3c2CCN(c2cccc4ccccc24)C3)C[C@H]1CC#N` [Compound 101, (R)-3-((4-(4-acryloyl-3-(cyanomethyl)piperazin-1-yl)-7-(naphthalen-1-yl)-5,6,7,8-tetrahydropyrido[3,4-d]pyrimidin-2-yl)amino)-N-((1-(1-(4-(3-(2,4-dihydroxy-5-isopropylphenyl)-5-hydroxy-4H-1,2,4-triazol-4-yl)benzyl)piperidine-4-carbonyl)piperidin-4-yl)methyl)propanamide, trifluoroacetic acid], for which the IC50 at HSP90a protein is < 100 nM. For the same compound, the EC50 in assay [1] is > 1000 nM.

As to `C=CC(=O)N1CCN(c2nc(NCCC(=O)NCC3CCN(C(=O)C4CCN(Cc5ccc(-n6c(O)nnc6-c6cc(C(C)C)c(O)cc6O)cc5)CC4)CC3)nc3c2CCN(c2cccc4cccc(Cl)c24)C3)C[C@H]1CC#N` [Compound 102, (R)-3-((4-(4-acryloyl-3-(cyanomethyl)piperazin-1-yl)-7-(8-chloronaphthalen-1-yl)-5,6,7,8-tetrahydropyrido[3,4-d]pyrimidin-2-yl)amino)-N-((1-(1-(4-(3-(2,4-dihydroxy-5-isopropylphenyl)-5-hydroxy-4H-1,2,4-triazol-4-yl)benzyl)piperidine-4-carbonyl)piperidin-4-yl)methyl)propanamide, trifluoroacetic acid], the IC50 at HSP90a protein was < 100 nM. In assay [1], the concentration for a half-maximal effect (EC50) is > 1000 nM.

For the compound `C=CC(=O)N1CCN(c2nc(NCCC(=O)NCC3CCN(C(=O)C4CCN(Cc5ccc(-n6c(O)nnc6-c6cc(CC)c(O)cc6O)cc5)CC4)CC3)nc3c2CCN(c2cccc4ccccc24)C3)C[C@H]1CC#N` [Compound 103, (R)-3-((4-(4-acryloyl-3-(cyanomethyl)piperazin-1-yl)-7-(naphthalen-1-yl)-5,6,7,8-tetrahydropyrido[3,4-d]pyrimidin-2-yl)amino)-N-((1-(1-(4-(3-(5-ethyl-2,4-dihydroxyphenyl)-5-hydroxy-4H-1,2,4-triazol-4-yl)benzyl)piperidine-4-carbonyl)piperidin-4-yl)methyl)propanamide, trifluoroacetic acid], the half-maximal inhibitory concentration (IC50) at HSP90a protein was < 100 nM. In assay [1], the EC50 is > 1000 nM.

Turning to `C=CC(=O)N1CCN(c2nc(NCCC(=O)NCC3CCN(C(=O)C4CCN(Cc5ccc(-n6c(O)nnc6-c6cc(CC)c(O)cc6O)cc5)CC4)CC3)nc3c2CCN(c2cccc4cccc(Cl)c24)C3)C[C@H]1CC#N` [Compound 104, (R)-3-((4-(4-acryloyl-3-(cyanomethyl)piperazin-1-yl)-7-(8-chloronaphthalen-1-yl)-5,6,7,8-tetrahydropyrido[3,4-d]pyrimidin-2-yl)amino)-N-((1-(1-(4-(3-(5-ethyl-2,4-dihydroxyphenyl)-5-hydroxy-4H-1,2,4-triazol-4-yl)benzyl)piperidine-4-carbonyl)piperidin-4-yl)methyl)propanamide, trifluoroacetic acid], on HSP90a protein, the IC50 was < 100 nM. In addition, the EC50 in assay [1] is > 1000 nM.

`C=CC(=O)N1CCN(c2nc(NCCC(=O)N3CCN(Cc4ccc5c(c4F)CN(C(=O)c4ccc(O)cc4O)C5)CC3)nc3c2CCN(c2cc(O)cc4ccccc24)C3)CC1` [Compound 105, 1-(4-(2-((3-(4-((2-(2,4-dihydroxybenzoyl)-4-fluoroisoindolin-5-yl)methyl)piperazin-1-yl)-3-oxopropyl)amino)-7-(3-hydroxynaphthalen-1-yl)-5,6,7,8-tetrahydropyrido[3,4-d]pyrimidin-4-yl)piperazin-1-yl)prop-2-en-1-one, trifluoroacetic acid]: on HSP90a protein, the IC50 was > 1000 nM. For the same compound, the EC50 in assay [1] was > 1000 nM.

Turning to `C=CC(=O)N1CCN(c2nc(NCCC(=O)N3CCN(Cc4ccc5c(c4F)CN(C(=O)c4cc(C)c(O)cc4O)C5)CC3)nc3c2CCN(c2cc(O)cc4ccccc24)C3)CC1` [Compound 107, 1-(4-(2-((3-(4-((2-(2,4-dihydroxy-5-methylbenzoyl)-4-fluoroisoindolin-5-yl)methyl)piperazin-1-yl)-3-oxopropyl)amino)-7-(3-hydroxynaphthalen-1-yl)-5,6,7,8-tetrahydropyrido[3,4-d]pyrimidin-4-yl)piperazin-1-yl)prop-2-en-1-one, trifluoroacetic acid], the IC50 on HSP90a protein was > 1000 nM. Also, the EC50 in assay [1] was > 1000 nM.
